Converted amounts (≈) assume the structure as drawn.
How the values were obtained:
Assay in all cases: ≥ marks a high value that may be exact or a test limit, other limits are often not marked, values filed in µg/mL are converted to µM
[1] = system: Staphylococcus epidermidis ATCC 12228
[2] = system: Escherichia coli
[3] = system: Staphylococcus aureus ATCC 29213
[4] = system: Escherichia coli ATCC 25922
[5] = system: Staphylococcus aureus
[6] = system: Pseudomonas aeruginosa
[7] = system: Pseudomonas aeruginosa ATCC 27853
[8] = system: Pseudomonas aeruginosa PAO1

| MIC [2] | MIC [3] | MIC [4] | MIC [6] | SMILES | other results |
| --- | --- | --- | --- | --- | --- |
| – | – | – | – | CC(C)C[C@H](NC(=O)[C@H](CC(N)=O)NC(=O)[C@H](Cc1c[nH]c2ccccc12)NC(=O)[C@H](CCCN=C(N)N)NC(=O)[C@H](C)NC(=O)[C@H](CCCCN)NC(=O)[C@H](CCCCN)NC(=O)CNC(=O)[C@H](CC(C)C)NC(=O)[C@H](Cc1ccc(O)cc1)NC(=O)[C@H](Cc1ccc(O)cc1)NC(=O)CNC(=O)[C@H](Cc1c[nH]c2ccccc12)NC(=O)[C@H](CO)NC(=O)[C@H](CO)NC(=O)[C@H](Cc1c[nH]c2ccccc12)NC(=O)[C@H](CC(C)C)NC(=O)[C@H](CCCCN)NC(=O)[C@@H](NC(=O)[C@@H](NC(=O)[C@H](CC(C)C)NC(=O)[C@@H](N)CC(=O)O)[C@@H](C)O)[C@@H](C)O)C(=O)O [DLTTKLWSSWGYYLGKKARWNL] | MIC [1]: 25 µM (≈ 67.2 µg/mL) |
| 20 µM (≈ 56.5 µg/mL) | > 40 µM | 10 µM (≈ 28.3 µg/mL) | – | CC[C@H](C)[C@H](NC(=O)CN)C(=O)NCC(=O)N[C@@H](C)C(=O)N[C@H](C(=O)N[C@@H](CC(C)C)C(=O)N[C@@H](CCCCN)C(=O)N[C@H](C(=O)N[C@@H](CC(C)C)C(=O)N[C@H](C(=O)N[C@H](C(=O)NCC(=O)N[C@@H](CC(C)C)C(=O)N1CCC[C@H]1C(=O)N[C@@H](C)C(=O)N[C@@H](CS)C(=O)N[C@H](C(=O)N[C@@H](CO)C(=O)N[C@@H](Cc1c[nH]c2ccccc12)C(=O)N[C@@H](CS)C(=O)N[C@@H](CCCCN)C(=O)N[C@@H](CCCN=C(N)N)C(=O)N[C@@H](CCCCN)C(=O)N[C@@H](CCCN=C(N)N)C(=O)N[C@@H](CCC(N)=O)C(=O)N[C@@H](CCC(N)=O)C(=O)O)[C@@H](C)CC)[C@@H](C)O)[C@@H](C)O)C(C)C)C(C)C [GIGAVLKVLTTGLPACISWCKRKRQQ] | – |
| 40 µM (≈ 100 µg/mL) | – | – | 80 µM (≈ 200 µg/mL) | CC[C@H](C)[C@H](NC(=O)CN)C(=O)NCC(=O)N[C@@H](CCCCN)C(=O)N[C@@H](Cc1ccccc1)C(=O)N[C@@H](CC(C)C)C(=O)N[C@@H](Cc1cnc[nH]1)C(=O)N[C@@H](CO)C(=O)N[C@@H](C)C(=O)N[C@@H](CCCCN)C(=O)N[C@@H](CCCCN)C(=O)N[C@@H](Cc1ccccc1)C(=O)NCC(=O)N[C@@H](CCCCN)C(=O)N[C@@H](C)C(=O)N[C@@H](Cc1c[nH]c2ccccc12)C(=O)N[C@H](C(=O)NCC(=O)N[C@@H](CCC(=O)O)C(=O)N[C@H](C(=O)N[C@@H](CCSC)C(=O)N[C@@H](CC(N)=O)C(=O)N[C@@H](CO)C(N)=O)[C@@H](C)CC)C(C)C [GIGKFLHSAKKFGKAWVGEIMNS] | MIC [5]: > 80 µM |
| – | 106 µM (≈ 256 µg/mL) | 26.5 µM (≈ 64 µg/mL) | – | CC[C@H](C)[C@H](NC(=O)CN)C(=O)NCC(=O)N[C@@H](CCCCN)C(=O)N[C@@H](Cc1ccccc1)C(=O)N[C@@H](CC(C)C)C(=O)N[C@@H](Cc1cnc[nH]1)C(=O)N[C@@H](CO)C(=O)N[C@@H](C)C(=O)N[C@@H](CCCCN)C(=O)N[C@@H](CCCCN)C(=O)N1CCC[C@H]1C(=O)NCC(=O)N[C@@H](CCCCN)C(=O)N[C@@H](C)C(=O)N[C@@H](Cc1ccccc1)C(=O)N[C@H](C(=O)NCC(=O)N[C@@H](CCC(=O)O)C(=O)N[C@H](C(=O)N[C@@H](CCSC)C(=O)N[C@@H](CC(N)=O)C(=O)N[C@@H](CO)C(N)=O)[C@@H](C)CC)C(C)C [GIGKFLHSAKKPGKAFVGEIMNS] | MIC [7]: 53 µM (≈ 128 µg/mL) |
| 13 µM (≈ 33.7 µg/mL) | – | – | 13 µM (≈ 33.7 µg/mL) | CC[C@H](C)[C@H](NC(=O)CN)C(=O)NCC(=O)N[C@@H](CCCCN)C(=O)N[C@@H](Cc1ccccc1)C(=O)N[C@@H](CC(C)C)C(=O)N[C@@H](Cc1cnc[nH]1)C(=O)N[C@H](C(=O)N[C@@H](CC(C)C)C(=O)N[C@@H](CCCCN)C(=O)N[C@H](C(=O)N[C@@H](Cc1ccccc1)C(=O)NCC(=O)N[C@@H](CCCCN)C(=O)N[C@@H](CCCCN)C(=O)N[C@@H](Cc1c[nH]c2ccccc12)C(=O)N[C@H](C(=O)NCC(=O)N[C@@H](CCC(=O)O)C(=O)N[C@H](C(=O)N[C@@H](CCSC)C(=O)N[C@@H](CC(N)=O)C(=O)N[C@@H](CO)C(N)=O)[C@@H](C)CC)C(C)C)[C@@H](C)O)[C@@H](C)O [GIGKFLHTLKTFGKKWVGEIMNS] | MIC [5]: 13 µM (≈ 33.7 µg/mL) |
| – | – | > 80 µM | – | CC[C@H](C)[C@H](NC(=O)CN)C(=O)N[C@@H](CCCCN)C(=O)N[C@@H](CCCCN)C(=O)N[C@@H](Cc1c[nH]c2ccccc12)C(=O)N[C@@H](CC(C)C)C(=O)N[C@@H](Cc1cnc[nH]1)C(=O)N[C@@H](CO)C(=O)N1CCC[C@H]1C(=O)N[C@@H](CCCCN)C(=O)N[C@@H](CCCCN)C(=O)N1CCC[C@H]1C(=O)NCC(=O)N[C@@H](CCCCN)C(=O)N[C@@H](CCCCN)C(=O)N[C@@H](Cc1ccccc1)C(=O)N[C@H](C(=O)N[C@@H](CCCCN)C(=O)N[C@@H](CCCCN)C(=O)N[C@H](C(=O)N[C@@H](CCSC)C(=O)N[C@@H](CC(N)=O)C(=O)N[C@@H](CO)C(N)=O)[C@@H](C)CC)C(C)C [GIKKWLHSPKKPGKKFVKKIMNS] | MIC [1]: 10 µM (≈ 26.8 µg/mL) |
| – | 40 µM (≈ 72.1 µg/mL) | 20 µM (≈ 36 µg/mL) | – | NCC(=O)N[C@@H](CCCN=C(N)N)C(=O)N[C@@H](CCCN=C(N)N)C(=O)N1CCC[C@H]1C(=O)N[C@@H](CCCN=C(N)N)C(=O)N1CCC[C@H]1C(=O)N[C@@H](CCCN=C(N)N)C(=O)N1CCC[C@H]1C(=O)N[C@@H](CCCN=C(N)N)C(=O)N1CCC[C@H]1C(=O)N[C@@H](Cc1c[nH]c2ccccc12)C(=O)N[C@@H](Cc1c[nH]c2ccccc12)C(=O)N[C@@H](Cc1c[nH]c2ccccc12)C(N)=O [GRRPRPRPRPWWW] | MIC [7]: 80 µM (≈ 144 µg/mL) |
| 6 µM (≈ 11.2 µg/mL) | – | – | 24 µM (≈ 44.8 µg/mL) | CC(C)C[C@H](NC(=O)[C@H](C)NC(=O)[C@H](CCCCN)NC(=O)[C@H](Cc1c[nH]c2ccccc12)NC(=O)[C@H](CC(C)C)NC(=O)[C@H](CCCCN)NC(=O)[C@H](C)NC(=O)[C@H](CC(C)C)NC(=O)[C@H](C)NC(=O)[C@H](CCCCN)NC(=O)[C@H](C)NC(=O)[C@H](CC(C)C)NC(=O)[C@H](C)NC(=O)[C@@H](N)CCCCN)C(=O)N[C@@H](C)C(=O)N[C@@H](CCCCN)C(=O)N[C@@H](C)C(=O)N[C@@H](C)C(N)=O [KALAKALAKLWKALAKAA] | MIC [5]: 1.5 µM (≈ 2.8 µg/mL) |
| 3.68 µM (≈ 7.17 µg/mL) | – | – | 14.7 µM (≈ 28.7 µg/mL) | CC(C)C[C@H](NC(=O)[C@H](C)NC(=O)[C@H](CC(C)C)NC(=O)[C@H](CCCCN)NC(=O)[C@H](CC(C)C)NC(=O)[C@H](C)NC(=O)[C@H](CC(C)C)NC(=O)[C@@H](N)CCCCN)C(=O)N[C@@H](CCCCN)C(=O)N[C@@H](C)C(=O)N[C@@H](Cc1c[nH]c2ccccc12)C(=O)N[C@@H](CCCCN)C(=O)N[C@@H](C)C(=O)N[C@@H](C)C(=O)N[C@@H](CC(C)C)C(=O)N[C@@H](CCCCN)C(=O)N[C@@H](CC(C)C)C(=O)N[C@@H](C)C(N)=O [KLALKLALKAWKAALKLA] | MIC [5]: 1.84 µM (≈ 3.58 µg/mL) |
| – | – | – | > 20 µM | CC[C@H](C)[C@H](NC(=O)[C@H](Cc1ccccc1)NC(=O)[C@H](CO)NC(=O)[C@H](CCCCN)NC(=O)[C@H](Cc1c[nH]c2ccccc12)NC(=O)[C@@H](N)CCCCN)C(=O)N[C@@H](CCCCN)C(=O)N[C@@H](CCCCN)C(=O)N[C@@H](CCCN=C(N)N)C(=O)N[C@H](C(=O)N[C@@H](CO)C(=O)N[C@@H](CCCCN)C(=O)N[C@@H](Cc1ccccc1)C(=O)N[C@@H](CC(C)C)C(=O)N[C@@H](Cc1cnc[nH]1)C(=O)N[C@@H](CO)C(=O)N[C@@H](C)C(=O)N[C@@H](CCCCN)C(=O)N[C@@H](CCCCN)C(=O)N[C@@H](Cc1ccccc1)C(N)=O)[C@@H](C)O [KWKSFIKKRTSKFLHSAKKF] | – |
| – | 5 µM (≈ 8.82 µg/mL) | 2.5 µM (≈ 4.41 µg/mL) | – | CC(C)C[C@H](NC(=O)[C@H](CCCCN)NC(=O)[C@H](CC(C)C)NC(=O)[C@H](CC(C)C)NC(=O)[C@H](CCCCN)NC(=O)[C@H](CCCCN)NC(=O)[C@@H](N)CC(C)C)C(=O)NCC(=O)N[C@@H](CCCCN)C(=O)N[C@@H](CCCCN)C(=O)N[C@@H](CC(C)C)C(=O)N[C@@H](CC(C)C)C(=O)N[C@@H](CCCCN)C(=O)N[C@@H](CC(C)C)C(=O)N[C@@H](C)C(=O)NCC(=O)O [LKKLLKLGKKLLKLAG] | – |
| – | 14.1 µM (≈ 24.5 µg/mL) | 14.1 µM (≈ 24.5 µg/mL) | – | CC(=O)N[C@@H](CC(C)C)C(=O)N[C@@H](CCCCN)C(=O)N[C@@H](CCCCN)C(=O)N[C@@H](CC(C)C)C(=O)N[C@@H](CC(C)C)C(=O)N[C@@H](CCCCN)C(=O)N[C@@H](CC(C)C)C(=O)N[C@@H](CC(C)C)C(=O)N[C@@H](CCCCN)C(=O)N[C@@H](CCCCN)C(=O)N[C@@H](CC(C)C)C(=O)N[C@@H](CC(C)C)C(=O)N[C@@H](CCCCN)C(=O)N[C@@H](CC(C)C)C(N)=O [LKKLLKLLKKLLKL] | – |
| – | 40 µM (≈ 66.4 µg/mL) | 7.07 µM (≈ 11.7 µg/mL) | – | CC(=O)N[C@@H](CC(C)C)C(=O)N[C@@H](CCCCN)C(=O)N[C@@H](CCCCN)C(=O)N1CCC[C@H]1C(=O)N[C@@H](CC(C)C)C(=O)N[C@@H](CCCCN)C(=O)N[C@@H](CC(C)C)C(=O)NCC(=O)N[C@@H](CCCCN)C(=O)N[C@@H](CCCCN)C(=O)N[C@@H](CC(C)C)C(=O)N[C@@H](CC(C)C)C(=O)N[C@@H](CCCCN)C(=O)N[C@@H](CC(C)C)C(N)=O [LKKPLKLGKKLLKL] | – |
| – | – | 5.53 µM (≈ 7.99 µg/mL) | – | CC[C@H](C)[C@H](NC(=O)[C@H](CCCN=C(N)N)NC(=O)[C@@H](NC(=O)[C@H](CCCN=C(N)N)NC(=O)[C@H](Cc1c[nH]c2ccccc12)NC(=O)[C@H](Cc1ccccc1)NC(=O)[C@H](Cc1ccccc1)NC(=O)[C@@H]1CCCN1)[C@@H](C)CC)C(=O)N[C@@H](CCCN=C(N)N)C(=O)N[C@@H](CCCN=C(N)N)C(N)=O [PFFWRIRIRR] | MIC [8]: 5.53 µM (≈ 7.99 µg/mL) |
| – | > 52.2 µM | 26.1 µM (≈ 32 µg/mL) | – | CC[C@H](C)[C@H](NC(=O)[C@H](CCCN=C(N)N)NC(=O)[C@H](CCCCN)NC(=O)[C@@H](N)CCC(N)=O)C(=O)N[C@@H](CCCN=C(N)N)C(=O)N[C@H](C(=O)N[C@@H](CCCN=C(N)N)C(=O)N[C@@H](CC(C)C)C(=O)N[C@@H](CO)C(=O)N[C@@H](C)C(=O)O)C(C)C [QKRIRVRLSA] | MIC [7]: 26.1 µM (≈ 32 µg/mL) |

— DBAASP
